Data on one compound can be found in publication PMC11134387, “Cancer-Stem-Cell Phenotype-Guided Discovery of a Microbiota-Inspired Synthetic Compound Targeting NPM1 for Leukemia” (JACS Au, 2024).

For experiment [1], the system named is NPM1. Kind of experiment: Western blot of NPM1 in MOLM13 cells. The class given is cell-based. The settings on record: MOLM13, 10 µM. On the procedure: We next studied the impact of UCM-13369 in the genes and/or expression levels of NPM1 and NPM1 C+ pathway components (Figure 4A), including the positive regulation of c-Myc[34] and the negative regulation of FBXW7 and the pro-apoptotic CASP8.[35] […] The inhibition of NPM1 was also observed in MOLM13 cells expressing WT NPM1 (Figure S1B).
1. Figures S1 -S4and T ab les S1 , S2
Figure S1. (A) Dose-response curve of UCM-13369 in MCF-7, HCT-116 and IMR90 […]
(10 µM) in MOLM13 cells at 24 and 48 h. Densitometry values: reduction of 5% and […]
between NSG mice injected with OCI-AML3 cells, with and without UCM-13369 treatment (50 mg/kg). (D) IHC analysis of a poptotic cells in a representative kidney sample from OC I-AML 3 xenograft mice treat ed with DMSO (vehicle, top) vs . UCM-13369 treated mice (50 mg/kg, bottom) mice: H&E ( left) and cleav ed caspase- 3 (right). […]
Proteomic analysis. A supplementary table (Excel file) includes all the data of the proteomic analysis, showing all the proteins identified, not only those ablated in the treated population, but also those found with different expression levels in both populations under study, and even those that were not detected in the control population but were detected in the treated population. Follows the image of a Venn diagram showing the number of proteins detected in each of the pop ulations and the proteins that converg e […]
For orientation: Immunoblotting shows a protein as a band on a membrane.

Experiment [2] deals with primary HSCs from patients with NPM1 C+ AML. Kind of experiment: CD34+ liquid HSC short-term culture, NPM1 C+ AML patients. The class given is cell-based. Conditions: Homo sapiens, n = 4. On the procedure: Considering the inhibitory capacity of UCM-13369 on AML cell lines (shown in Figure 3A), the therapeutic potential was assessed in primary CD34+ cells from AML patients. Two ex vivo models were used from AML patients and healthy donors: CD34+ liquid HSC (hematopoietic stem cell) culture as a short-term model and CFU-E (colony-forming unit–erythroid) as a midterm model.
The test compound was diluted in PBS. […]
quantitative real-time PCR (qPCR), or were sorted using a FACS BD INFL UX cell sorter (BD Biosciences, Franklin Lakes, NJ, USA). All cells were maintained at 37 °C in a humidified incubator in an atmosphere of 5% CO2, and passaged every 2–3 days. […]
Primary cells. […] After 72 h in maintenance cells were ready to start the assays. […]
Colonospheres, mamospheres and colony formation unit assays. […] After 10 days (mamospheres and colonospheres) and 14 days (CFU-E) we quantified t he number of colonies/spheres and number of cell s (CFU-E) by […]
RNA and DNA extraction and quantitative PCR (qPCR). […] Gene expression was studied from the extracted RNA, processed into cDNA to quantify the expression of NPM1 and c-MYC. […]
The relative amount of targets was determined by the comparative Ct method.
Western blot. […] Lysates wer e cl ear ed by centrifugation (14,000g, 4 °C, 30 min), protein concentration determined by Bradford

One may read the IC50 as the concentration that gives 50% inhibition. A low value points to higher potency.

As to `COc1ccc(C2Cc3[nH]c4ccccc4c3C(CCNCC3CC3)C2N)cc1` (stereo not drawn) [4b, 4-{2-[(Cyclopropylmethyl)amino]ethyl}-2-(4-methoxyphenyl)-2,3,4,9-tetrahydro-1H-carbazol-3-amine], the “Densitometry values (NPM1): reduction” value came to 5% in experiment [1] (24 h) and 44% in experiment [1] (48 h). Half-maximal inhibition in experiment [2] (IC50) was put at 1720 nM.
